# Measured values: patent US20240124431A1, “2,3-DIHYDRO-4H-BENZO[B][1,4]OXAZIN-4-YL)(5-(PHENYL)-PYRIDIN-3-YL)METHANONE DERIVATIVES AND SIMILAR COMPOUNDS AS CYP11A1 INHIBITORS FOR THE TREATMENT OF PROSTATE CANCER” (ORION CORPORATION, priority 2020, published 2024)
# Target: T1, CYP11A1 (Homo sapiens, UniProt P05108)
# T1 construct: endogenous in cells; host or cells: NCI-H295R
# T1 sequence (P05108 40-521): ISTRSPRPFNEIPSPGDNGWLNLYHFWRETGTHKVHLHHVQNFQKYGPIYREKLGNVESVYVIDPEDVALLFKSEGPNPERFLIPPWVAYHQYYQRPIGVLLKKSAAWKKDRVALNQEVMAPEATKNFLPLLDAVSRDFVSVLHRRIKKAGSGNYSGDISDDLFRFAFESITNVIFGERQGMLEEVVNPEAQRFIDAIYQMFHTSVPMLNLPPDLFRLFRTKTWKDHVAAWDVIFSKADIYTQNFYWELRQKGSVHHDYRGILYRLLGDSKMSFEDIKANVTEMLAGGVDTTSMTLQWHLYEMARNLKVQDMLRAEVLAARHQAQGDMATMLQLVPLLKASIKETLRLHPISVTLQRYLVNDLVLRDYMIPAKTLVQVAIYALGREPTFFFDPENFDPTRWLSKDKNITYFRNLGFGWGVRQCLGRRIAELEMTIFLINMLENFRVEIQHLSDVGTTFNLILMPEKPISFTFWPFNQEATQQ
# Assay: CYP11A1 inhibition: pregnenolone biosynthesis measured by ELISA in NCI-H295R cells
# Type: cell-based
# Conditions: NCI-H295R cells treated for 24 hours, 10 concentrations in duplicates, read-out: IC50 on CYP11A1 inhibition (Group)
# Protocol: The ability of the test compounds to inhibit pregnenolone biosynthesis was measured by enzyme-linked immunosorbent assay (ELISA) detecting pregnenolone (Abnova Pregnenolone ELISA Kit, KA1912). […] To determine the half maximal inhibitory concentration (IC50) of the test compounds on CYP11A1 inhibition, the cells were treated for 24 hours with increasing concentrations of the test compound. The final DMSO concentration was 0.4%. Medium samples were diluted 1:6 and pregnenolone amounts determined with ELISA. Manufacturer's recommended protocols were used and pregnenolone (Sigma-Aldrich, P9129) standards were prepared in cell culture medium. Absorbance (A450) was measured with Envision plate reader (PerkinElmer). All the test compounds were studied at 10 concentrations in duplicates.
row,IC50 [nM],Compound
1,201 to 2500,"Cc1cn(-c2cncc(C(=O)N3CCCc4ccccc43)c2)cn1 [Compound 82, (3,4-Dihydroquinolin-1(2H)-yl)(5-(4-methyl-1H-imidazol-1-yl)pyridin-3-yl)-methanone]"
2,201 to 2500,"CC1CCc2ccccc2N1C(=O)c1cnnc(-c2ccc(F)cc2)c1 (centres unmarked) [Compound 64, (6-(4-Fluorophenyl)pyridazin-4-yl)(2-methyl-3,4-dihydroquinolin-1(2H)-yl)-methanone]"
3,201 to 2500,"Cn1cc(-c2cncc(C(=O)N3CCOc4ccccc43)c2)cn1 [Compound 73, (2,3-Dihydro-4H-benzo[b][1,4]oxazin-4-yl)(5-(1-methyl-1H-pyrazol-4-yl)-pyridin-3-yl)methanone]"
4,201 to 2500,"c1ccc(-c2cncc(CN3CCOc4ccccc43)c2)cc1 [Compound 81, 4-((5-Phenylpyridin-3-yl)methyl)-3,4-dihydro-2H-benzo[b][1,4]oxazine]"
5,201 to 2500,"COc1ccc(-c2cncc(CC(=O)N3CCOc4ccccc43)c2)cc1 [Compound 80, 1-(2,3-Dihydro-4H-benzo[b][1,4]oxazin-4-yl)-2-(5-(4-methoxyphenyl)pyridin-3-yl)ethan-1-one]"
6,< 50,"COc1cccc(-c2cncc(C(=O)N3CCCc4ccccc43)c2)c1 [Compound 38, (3,4-Dihydroquinolin-1(2H)-yl)(5-(3-methoxyphenyl)pyridin-3-yl)methanone]"
7,201 to 2500,"O=C(c1cncc(-c2ccccc2)c1)N1CCCc2ncccc21 [Compound 61, (3,4-Dihydro-1,5-naphthyridin-1(2H)-yl)(5-phenylpyridin-3-yl)methanone]"
8,< 50,"COc1ccc(-c2cncc(C(=O)N3CCCc4ccccc43)n2)cc1 [Compound 14, (3,4-Dihydroquinolin-1(2H)-yl)(6-(4-methoxyphenyl)pyrazin-2-yl)methanone]"
9,< 50,"O=C(c1cncc(-c2ccc(F)cc2)c1)N1CCOc2cc(F)ccc21 [Compound 2, (7-Fluoro-2,3-dihydro-4H-benzo[b][1,4]oxazin-4-yl)(5-(4-fluorophenyl)pyridin-3-yl)methanone]"
10,< 50,"COc1ccc(-c2cncc(C(=O)N3CCCc4ncccc43)c2)cc1 [Compound 34, (3,4-Dihydro-1,5-naphthyridin-1(2H)-yl)(5-(4-methoxyphenyl)pyridin-3-yl)-methanone]"
11,< 50,"O=C(c1cncc(-c2ccc3c(c2)OCC3)n1)N1CCOc2ccccc21 [Compound 13, (2,3-Dihydro-4H-benzo[b][1,4]oxazin-4-yl)(6-(2,3-dihydrobenzofuran-6-yl)pyrazin-2-yl)methanone]"
12,< 50,"O=C1CCN(C(=O)c2cncc(-c3ccccc3)c2)c2ccccc21 [Compound 36, 1-(5-Phenylnicotinoyl)-2,3-dihydroquinolin-4(1H)-one]"
13,< 50,"O=C(c1cncc(C2=CCCCC2)c1)N1CCOc2ccccc21 [Compound 33, (5-(Cyclohex-1-en-1-yl)pyridin-3-yl)(2,3-dihydro-4H-benzo[b][1,4]oxazin-4-yl)methanone]"
14,201 to 2500,"O=C(c1cncc(N2CCCC2)c1)N1CCOc2ccccc21 [Compound 74, (2,3-Dihydro-4H-benzo[b][1,4]oxazin-4-yl)(5-(pyrrolidin-1-yl)pyridin-3-yl)-methanone]"
15,201 to 2500,"O=C(c1cncc(N2CC(F)(F)C2)n1)N1CCOc2ccccc21 [Compound 77, (6-(3,3-Difluoroazetidin-1-yl)pyrazin-2-yl)(2,3-dihydro-4H-benzo[b][1,4]oxazin-4-yl)methanone]"
16,201 to 2500,"O=C(c1cncc(Cc2ccccc2)n1)N1CCCc2ccccc21 [Compound 85, (6-Benzylpyrazin-2-yl)(3,4-dihydroquinolin-1(2H)-yl)methanone]"
17,< 50,"Cc1cnn(-c2cncc(C(=O)N3CCCc4ccccc43)n2)c1 [Compound 84, (3,4-Dihydroquinolin-1(2H)-yl)(6-(4-methyl-1H-pyrazol-1-yl)pyrazin-2-yl)-methanone]"
